pIC50, pKi: −log10 of the molar value. Calls of active or inactive are those of the source. The calls are words filed in the database; no cut-off is given here. Some results are limits rather than exact numbers.

In experiment [1] the test system is PC-3. The experiment in a line: Cytotoxicity against human PC3 cells upto 10 uM by SRB assay. The class given is functional, cell-based. Background: The SRB assay estimates cell density from bound dye.
The subject of experiment [2] is LNCaP. The experiment in a line: Increase in prostate specific antigen expression level in human LNCaP cells at 1 uM. The class given is functional, cell-based.
Experiment [3] has as its target T1, 5-hydroxytryptamine receptor 2C (Homo sapiens) (UniProt P28335).
T1 sequence (whole entry): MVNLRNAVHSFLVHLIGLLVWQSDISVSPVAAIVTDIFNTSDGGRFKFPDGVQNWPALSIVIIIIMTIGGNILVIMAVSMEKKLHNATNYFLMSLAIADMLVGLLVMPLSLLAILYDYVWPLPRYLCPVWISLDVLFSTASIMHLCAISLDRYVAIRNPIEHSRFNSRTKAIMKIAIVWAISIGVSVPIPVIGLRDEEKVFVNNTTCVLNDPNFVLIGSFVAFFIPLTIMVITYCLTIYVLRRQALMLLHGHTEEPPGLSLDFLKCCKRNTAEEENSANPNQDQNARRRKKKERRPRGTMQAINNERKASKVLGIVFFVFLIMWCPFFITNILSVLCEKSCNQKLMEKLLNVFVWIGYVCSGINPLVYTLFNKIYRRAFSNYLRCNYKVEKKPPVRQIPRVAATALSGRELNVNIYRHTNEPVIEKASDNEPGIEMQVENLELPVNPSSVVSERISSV
The experiment in a line: Displacement of [3H]mesulergine from human dopamine 5HT2C receptor expressed in CHO-K1 cells upto 1 uM. The class given is cell-based. (In general: In a radioligand displacement assay an active substance lowers the binding of a labelled ligand.)

In experiment [4] the target is T2, Androgen receptor (Homo sapiens, UniProt P10275).
T2 sequence (P10275 whole entry): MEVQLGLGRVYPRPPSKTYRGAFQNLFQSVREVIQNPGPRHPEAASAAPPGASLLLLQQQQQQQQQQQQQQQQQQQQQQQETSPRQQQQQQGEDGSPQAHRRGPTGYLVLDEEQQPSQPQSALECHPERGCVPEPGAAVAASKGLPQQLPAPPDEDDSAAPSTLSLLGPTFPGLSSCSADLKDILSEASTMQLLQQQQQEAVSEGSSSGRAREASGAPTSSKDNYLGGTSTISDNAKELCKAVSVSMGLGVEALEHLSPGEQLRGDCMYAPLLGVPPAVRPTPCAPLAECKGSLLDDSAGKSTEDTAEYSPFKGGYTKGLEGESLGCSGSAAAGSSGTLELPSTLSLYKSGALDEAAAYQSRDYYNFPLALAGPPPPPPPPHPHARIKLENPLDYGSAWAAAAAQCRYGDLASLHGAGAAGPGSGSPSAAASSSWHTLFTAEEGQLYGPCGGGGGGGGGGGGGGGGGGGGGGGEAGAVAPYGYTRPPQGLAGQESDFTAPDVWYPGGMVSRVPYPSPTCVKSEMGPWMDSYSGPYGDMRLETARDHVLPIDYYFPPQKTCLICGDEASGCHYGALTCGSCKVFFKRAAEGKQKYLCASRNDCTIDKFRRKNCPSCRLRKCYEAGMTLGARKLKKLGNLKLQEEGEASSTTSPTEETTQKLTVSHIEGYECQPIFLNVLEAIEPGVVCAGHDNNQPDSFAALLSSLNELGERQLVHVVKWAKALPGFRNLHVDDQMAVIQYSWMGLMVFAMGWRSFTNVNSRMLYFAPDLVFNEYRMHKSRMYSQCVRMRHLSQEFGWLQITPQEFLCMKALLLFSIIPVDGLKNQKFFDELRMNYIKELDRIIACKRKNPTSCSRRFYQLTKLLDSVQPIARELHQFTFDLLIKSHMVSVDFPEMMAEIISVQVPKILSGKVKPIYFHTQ
As to the kind of experiment: Inhibition of wild type androgen receptor expressed in CV1 cells assessed as dihydrotestosterone-stimulated transactivation by CAT reporter gene assay. The class given is cell-based, CV-1. In general terms: Reporter assays use an easily measured gene product as a stand-in for the process of interest.

In experiment [5] the target is D(2) dopamine receptor (Homo sapiens) (UniProt P14416). The experiment in a line: Displacement of [3H]spiperone from human dopamine D2L receptor expressed in CHO FlpIn cells upto 1 uM. The class given is cell-based.
Experiment [6] relates to HeLa. As to the kind of experiment: Effect on translocation of androgen receptor from cytoplasm to nucleus in human HeLa cells at 1 uM in presence of dihydrotestosterone. The class given is functional.
For experiment [7], the system named is LNCaP. The experiment in a line: Reduction of prostate specific antigen expression level in human LNCaP cells at 10 uM. The class given is functional. Further details: scale not given: the % may be the effect or the level left.
The target of experiment [8] is 5-hydroxytryptamine receptor 2A (Homo sapiens) (UniProt P28223). The experiment in a line: Displacement of [3H]ketanserin from human dopamine 5HT2A receptor expressed in CHO-K1 cells upto 1 uM. The class given is cell-based.
The target in experiment [9] is T3, Androgen receptor (Rattus norvegicus, UniProt P15207).
T3 sequence (P15207 whole entry): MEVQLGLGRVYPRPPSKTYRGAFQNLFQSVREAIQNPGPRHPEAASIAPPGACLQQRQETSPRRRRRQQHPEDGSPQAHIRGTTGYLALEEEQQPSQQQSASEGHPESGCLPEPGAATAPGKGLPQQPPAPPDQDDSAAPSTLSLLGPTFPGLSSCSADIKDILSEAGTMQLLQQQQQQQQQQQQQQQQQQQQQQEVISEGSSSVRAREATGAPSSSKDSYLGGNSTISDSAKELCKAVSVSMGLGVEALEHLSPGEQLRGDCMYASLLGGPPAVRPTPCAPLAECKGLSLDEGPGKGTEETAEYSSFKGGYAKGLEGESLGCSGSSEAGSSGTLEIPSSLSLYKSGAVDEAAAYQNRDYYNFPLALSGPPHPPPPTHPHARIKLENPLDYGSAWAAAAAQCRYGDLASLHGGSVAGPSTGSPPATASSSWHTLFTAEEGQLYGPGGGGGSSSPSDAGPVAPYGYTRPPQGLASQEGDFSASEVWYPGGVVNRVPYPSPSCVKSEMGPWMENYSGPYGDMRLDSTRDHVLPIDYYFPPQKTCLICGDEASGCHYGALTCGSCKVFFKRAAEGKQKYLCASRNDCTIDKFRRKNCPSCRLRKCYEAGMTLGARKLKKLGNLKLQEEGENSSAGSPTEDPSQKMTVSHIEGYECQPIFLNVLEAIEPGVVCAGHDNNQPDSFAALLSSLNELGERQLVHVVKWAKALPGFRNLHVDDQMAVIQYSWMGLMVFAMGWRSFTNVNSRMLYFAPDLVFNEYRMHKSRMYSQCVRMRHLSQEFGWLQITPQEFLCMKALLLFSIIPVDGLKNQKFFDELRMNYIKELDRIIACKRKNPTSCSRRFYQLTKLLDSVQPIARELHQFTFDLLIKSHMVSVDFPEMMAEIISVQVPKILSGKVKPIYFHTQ
As to the kind of experiment: Displacement of [3H]mibolerone from rat androgen receptor.

Sequence of D(2) dopamine receptor (Homo sapiens) (P14416 whole entry): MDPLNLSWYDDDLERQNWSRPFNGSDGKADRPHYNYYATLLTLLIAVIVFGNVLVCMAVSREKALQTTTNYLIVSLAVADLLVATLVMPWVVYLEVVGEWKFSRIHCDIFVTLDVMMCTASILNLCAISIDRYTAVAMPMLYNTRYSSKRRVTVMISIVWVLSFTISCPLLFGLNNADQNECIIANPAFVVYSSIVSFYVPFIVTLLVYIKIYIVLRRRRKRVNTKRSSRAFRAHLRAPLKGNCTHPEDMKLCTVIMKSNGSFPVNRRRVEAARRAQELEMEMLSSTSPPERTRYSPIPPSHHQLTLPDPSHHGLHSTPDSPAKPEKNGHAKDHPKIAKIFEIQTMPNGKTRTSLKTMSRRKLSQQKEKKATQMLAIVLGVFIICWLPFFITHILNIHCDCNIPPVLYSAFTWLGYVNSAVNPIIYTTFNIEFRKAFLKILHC
Sequence of 5-hydroxytryptamine receptor 2A (Homo sapiens) (P28223 whole entry): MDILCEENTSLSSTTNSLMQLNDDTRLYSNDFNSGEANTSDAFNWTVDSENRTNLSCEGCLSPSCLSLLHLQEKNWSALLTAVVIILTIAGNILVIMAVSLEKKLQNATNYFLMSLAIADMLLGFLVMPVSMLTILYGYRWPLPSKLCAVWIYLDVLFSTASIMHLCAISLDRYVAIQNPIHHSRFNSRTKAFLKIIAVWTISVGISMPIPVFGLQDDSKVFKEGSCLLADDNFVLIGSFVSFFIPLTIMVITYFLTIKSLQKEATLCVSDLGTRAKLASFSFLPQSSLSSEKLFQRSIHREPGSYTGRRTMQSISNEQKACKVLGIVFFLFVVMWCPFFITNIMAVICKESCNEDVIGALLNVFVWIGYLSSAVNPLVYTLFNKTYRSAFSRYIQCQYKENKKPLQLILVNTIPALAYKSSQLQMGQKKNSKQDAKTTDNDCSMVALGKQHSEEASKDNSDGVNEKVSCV

What is called pIC50 is the negative decadic logarithm of the IC50, by convention in mol/L. One may read the IC50 as the concentration that gives 50% inhibition. In the case of `O=C(CN1c2ccccc2Sc2ccc(C(F)(F)F)cc21)c1cccc2ccccc12`, the result in [1], in experiment [3], in experiment [5] and in [8] was inactive. Moreover, the result in experiment [2] was Active. In experiment [4] (read-out: IC50), the pIC50 is 6.60. The IC50 in [4] (read-out: Log IC50 (converted)) was 251 nM. Moreover, the Activity is more than 90% in [6] and more than 80% in experiment [7].
Usually pKi stands for the negative decadic logarithm of the Ki, by convention in mol/L. `N#Cc1ccc2c(c1)N(CCCN1CCC(O)CC1)c1ccccc1S2` [PERICIAZINE] showed a pKi in [9] of 5.52.

For the origin of these results see ChEMBL document CHEMBL1145525, “Discovery of antiandrogen activity of nonsteroidal scaffolds of marketed drugs” (Proc Natl Acad Sci U S A, 2007).
